{
  "source": "patent US5202309A",
  "about": "“Antibiotic cyclopeptide fermentation product” (Merck & Co., Inc., priority 1991, dated 1993)",
  "key": {"Candida albicans": {"tested_on": "Candida albicans", "experiment": "Microbroth dilution assay in YNBD, minimum fungicidal concentration", "assay_type": "cell-based", "settings": "then Sabouraud dextrose agar 24 hours at 28° C.", "description": "(§1) The compounds were further diluted to 256 μg/ml in YNBD. […] After incubation, each culture was diluted in sterile water to yield a final concentration of 1-5×10^6 colony forming units (CFU)/ml."}, "Candida parapsilosis": {"tested_on": "Candida parapsilosis", "experiment": "Microbroth dilution assay in YNBD, minimum fungicidal concentration", "assay_type": "cell-based", "settings": "Candida parapsilosis MY 1010, 35° C. 24 hours, then Sabouraud dextrose agar 24 hours at 28° C.", "description": "as §1"}},
  "note": "Numbered stars: 1 amine (or outer) side, 2 acyl side, 3 side chain; on linkers, the order of the positions; unused ones are H or OH. Bridge positions count the residues as written; N and C are the ends. Square brackets hold non-standard residues; d marks the D form. Peptide text beside a SMILES is read from it. * marks the point of attachment. Orn(4R-OH,5R-OH) = O=C([C@H](C[C@@H](O)[C@@H](O)N[*:3])N[*:1])[*:2]; Tetradecanoyl(10R,12S-Me2) = CC[C@H](C)C[C@H](C)CCCCCCCCC(=O)*; hTyr(3S-OH,4S-OH) = N[C@H](C(=O)O)[C@H](O)[C@@H](O)c1ccc(O)cc1; Gln(3R-OH) = NC(=O)C[C@@H](O)[C@H](N)C(=O)O; Pro(3S-OH) = O=C(O)[C@H]1NCC[C@@H]1O; Hyp = O=C(O)[C@@H]1C[C@@H](O)CN1",
  "data": [
    {"smiles": "CC[C@H](C)C[C@H](C)CCCCCCCCC(=O)N[C@H]1C[C@@H](O)[C@@H](O)NC(=O)[C@@H]2[C@@H](O)CCN2C(=O)[C@H]([C@H](O)CC(N)=O)NC(=O)[C@H]([C@H](O)[C@@H](O)c2ccc(O)cc2)NC(=O)[C@@H]2C[C@@H](O)CN2C(=O)[C@H]([C@@H](C)O)NC1=O", "note": "[Compound I, 1-[4,5-dihydroxy-N^2-(10,12-dimethyl-1-oxotetradecyl)ornithine]-5-(3-hydroxy-glutamine)-6-(3-hydroxyproline)echinocandin B] ({Tetradecanoyl(10R,12S-Me2)}-[Orn(4R-OH,5R-OH)]T[Hyp][hTyr(3S-OH,4S-OH)][Gln(3R-OH)][Pro(3S-OH)]; lactam 1-C)", "values": [
      {"measurement": "Minimum Fungicidal Concentration", "setting": "Candida albicans; Candida albicans MY 1208, 35° C. 24 hours", "value": 0.5, "unit": "µg/mL"},
      {"measurement": "Minimum Fungicidal Concentration", "setting": "Candida albicans; Candida albicans MY 1783, 35° C. 24 hours", "value": 0.5, "unit": "µg/mL"},
      {"measurement": "Minimum Fungicidal Concentration", "setting": "Candida parapsilosis", "value": 8.0, "unit": "µg/mL"}
    ]}
  ]
}
